The text below walks through data of BindingDB's records for doi:10.1016/j.bmcl.2005.11.067 (Merck Sharp and Dohme Research Laboratories, 2006).

SMILES strings stand for the structures. Where only a bound is given, the exact number is not on record here.

The target in this assay is T1, Alpha-1A/Alpha-1B/Alpha-1D adrenergic receptor (Rattus norvegicus, UniProt P15823+P23944+P43140).
T1 sequence (P15823 whole entry): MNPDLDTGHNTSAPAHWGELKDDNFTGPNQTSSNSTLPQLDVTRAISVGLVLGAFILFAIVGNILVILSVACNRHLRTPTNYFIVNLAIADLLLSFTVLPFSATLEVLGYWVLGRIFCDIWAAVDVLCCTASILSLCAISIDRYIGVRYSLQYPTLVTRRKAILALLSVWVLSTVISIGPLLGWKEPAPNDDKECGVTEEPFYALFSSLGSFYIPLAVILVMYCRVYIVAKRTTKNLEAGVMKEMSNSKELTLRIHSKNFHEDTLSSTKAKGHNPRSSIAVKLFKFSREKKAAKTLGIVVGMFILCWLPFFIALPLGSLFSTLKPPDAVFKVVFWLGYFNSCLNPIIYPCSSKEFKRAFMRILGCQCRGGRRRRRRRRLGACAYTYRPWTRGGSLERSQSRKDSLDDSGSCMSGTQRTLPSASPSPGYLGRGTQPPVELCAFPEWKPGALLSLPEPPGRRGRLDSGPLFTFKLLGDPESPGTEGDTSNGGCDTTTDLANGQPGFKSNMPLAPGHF
T1 sequence (P43140 whole entry): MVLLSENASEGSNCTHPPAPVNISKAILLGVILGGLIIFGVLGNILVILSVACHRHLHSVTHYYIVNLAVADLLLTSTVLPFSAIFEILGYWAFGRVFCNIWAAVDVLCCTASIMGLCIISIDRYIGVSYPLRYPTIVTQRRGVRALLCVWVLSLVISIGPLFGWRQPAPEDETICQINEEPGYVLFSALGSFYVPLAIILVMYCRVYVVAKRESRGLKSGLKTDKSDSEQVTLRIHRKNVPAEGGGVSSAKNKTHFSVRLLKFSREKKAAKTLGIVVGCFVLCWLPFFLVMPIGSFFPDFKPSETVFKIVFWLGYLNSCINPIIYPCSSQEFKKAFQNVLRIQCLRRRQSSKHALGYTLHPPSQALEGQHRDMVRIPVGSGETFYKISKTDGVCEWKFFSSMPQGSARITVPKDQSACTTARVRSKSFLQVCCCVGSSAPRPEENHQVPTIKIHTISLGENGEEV
T1 sequence (P23944 whole entry): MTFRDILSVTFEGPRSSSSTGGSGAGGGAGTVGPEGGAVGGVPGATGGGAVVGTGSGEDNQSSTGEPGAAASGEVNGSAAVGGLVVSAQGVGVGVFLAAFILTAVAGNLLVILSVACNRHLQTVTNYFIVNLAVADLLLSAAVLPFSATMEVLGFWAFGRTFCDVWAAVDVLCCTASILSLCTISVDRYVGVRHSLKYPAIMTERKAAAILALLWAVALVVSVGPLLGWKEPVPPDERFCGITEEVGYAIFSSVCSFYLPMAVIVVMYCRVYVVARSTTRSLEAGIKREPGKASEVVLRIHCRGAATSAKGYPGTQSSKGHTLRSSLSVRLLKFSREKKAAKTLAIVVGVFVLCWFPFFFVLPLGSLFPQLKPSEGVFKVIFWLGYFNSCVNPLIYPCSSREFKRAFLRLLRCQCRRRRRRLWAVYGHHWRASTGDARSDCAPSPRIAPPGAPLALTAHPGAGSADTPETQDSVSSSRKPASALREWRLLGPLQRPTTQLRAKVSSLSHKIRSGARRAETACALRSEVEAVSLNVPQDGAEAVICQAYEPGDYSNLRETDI
The assay can be described thus: Displacement of [3H]prazosin from alpha-1 adrenergic receptor in rat cortex. In general terms: Displacement assays read how much labelled ligand stays bound in the presence of the test substance.
One may read the Ki as the equilibrium dissociation constant of an inhibitor or competing ligand from its target. A lower Ki goes with a stronger hold on the target. Compound `CC(C)(CCCN1CCCC(c2cnco2)C1)S(=O)(=O)c1ccccc1` (centres undefined) gave a Ki of over 4 µM.

With `CCOC(=O)[C@@H]1CCCN(CCCC(C)(C)S(=O)(=O)c2ccccc2)C1`, the Ki was over 4 µM.

Turning to `CC(C)(CCCN1CCCC(c2ccccc2)C1)S(=O)(=O)c1ccccc1` (centres undefined), the Ki was determined as 0.54 µM.

For `CC(C)(CCCN1CCCC(C(F)(F)F)C1)S(=O)(=O)c1ccccc1` (centres undefined), the Ki is over 4 µM.
